9 molecules from patent US20230096766A1, “AMINO ACID HAVING FUNCTIONAL GROUP CAPABLE OF INTERMOLECULAR HYDROGEN BONDING, PEPTIDE COMPOUND CONTAINING SAME AND METHOD FOR PRODUCTION THEREOF” (Chugai Seiyaku Kabushiki Kaisha, priority 2018, published 2023) can be followed below.

*1 amine or outer side, *2 acyl side, *3 side chain or, on linkers, in order; H or OH if unused. Where a SMILES comes first, the peptide text is derived from it. Bridges are numbered along the chain shown (N, C = ends). [ ]: non-standard residue; d: D form. The star is where a group is joined. ξ: configuration not given here. X5 = O=C([C@H](CCC[C@@H]1CC(F)(F)CN1)N[*:1])[*:2]; CH2(1,2,4-oxadiazolon-3-yl) = O=c1[nH]c(C*)no1; NMePhe(3-Cl) = CN[C@@H](Cc1cccc(Cl)c1)C(=O)O; X12 = O=C([C@H](CCCC(O)C(F)(F)F)N[*:1])[*:2]; X4 = O=C(C(CCc1noc(=O)[nH]1)N[*:1])[*:2]; Pro(4,4-F2)ψ(CH2) = FC1(F)CN[C@H](C*)C1; Propyl(2,2-Me2,3-OH) = CC(C)(CO)C*; NMeF = CN[C@@H](Cc1ccccc1)C(=O)O; NMeGABA = CN(CCCC(=O)[*:2])[*:1]; NMeL = CN[C@@H](CC(C)C)C(=O)O; Butyl(3R-OH) = C[C@@H](O)CC*; NMeV = CN[C@H](C(=O)O)C(C)C; NMeAbu = CC[C@H](NC)C(=O)O; Piperidide = C1CCN(*)CC1; dAbu = CC[C@@H](N)C(=O)O; Me2NCH2CH2 = CN(C)CC*; NBuGly = CCCCNCC(=O)O; Propyl(3-OH) = OCCC*; ξS = NC(CO)C(=O)O; Sar = CNCC(=O)O; tBu = CC(C)(C)*

In general, Papp refers to a coefficient for how fast a substance crosses the barrier. Higher therefore signals ready permeation.

A short description of this series: Membrane permeability test of cyclic peptides (Caco-2, modified/improved method of WO 2018/124162). The note with it: human. (Caco-2 cells form a polarised layer with tight junctions and transporters.)
The mark [1] stands for this setting: Caco-2, Caco-2 (cm/sec), membrane permeability of cyclic peptides, Caco-2.
The mark [2] stands for this setting: Caco-2, Caco-2 (membrane permeability), Table 10, cyclic peptides containing Ser(S-4-F2-Pyrro-Me) (G) or Nva(2-R-4-F2-Pyrro) (H).

`CC(C)C[C@@H]1NC(=O)[C@H](Cc2ccccc2)N(C)C(=O)[C@H](Cc2ccccc2)N(C)C(=O)[C@H](COCCN(C)C)NC(=O)[C@H](CC(C)C)N(C)C(=O)CCCN(C)C(=O)C[C@@H](C(=O)N2CCCCC2)NC(=O)[C@H](CC(C)C)N(C)C(=O)[C@H](CC(C)C)N(C)C(=O)[C@H]([C@@H](C)O)NC(=O)[C@H](CC(C)C)N(C)C1=O` [pd55] ([NMeGABA][NMeL]S(Me2NCH2CH2)[NMeF][NMeF]L[NMeL]T[NMeL][NMeL]D-Piperidide; lactam N-11): the Papp (Caco-2, Caco-2, Papp, membrane permeability, cyclic peptides comprising Ser(Et-2-NMe2) or Gln(Ms) (Table 27)) is 0.1 ×10⁻⁶ cm/s.

`CCCCN1CC(=O)N(C)[C@@H](CC(C)C)C(=O)N[C@H](C(=O)N2CCCCC2)CC(=O)N(C)[C@@H](CC)C(=O)N[C@@H](CC(C)C)C(=O)N(C)[C@@H](CC(C)C)C(=O)N(C)[C@@H](Cc2ccccc2)C(=O)NC(CCc2noc(=O)[nH]2)C(=O)N(C)[C@@H](CC(C)C)C(=O)N(C)[C@@H](CC(C)C)C(=O)N[C@@H]([C@@H](C)O)C1=O` (stereo partly drawn) [pd487] ([NMeAbu]L[NMeL][NMeF][X4][NMeL][NMeL]T[NBuGly][NMeL]D-Piperidide; lactam N-11) returned a Papp (Caco-2, Caco-2, Papp, membrane permeability, cyclic peptides comprising MeAbu(pip-4-F2), MeAbu(Mor), Ser(Et-2-Mor), MeAbu(pip-3-F2) or Abu(5-Oxo-Odz) (Table 29)) of 2.2 ×10⁻⁶ cm/s.

The molecule `CC(C)C[C@@H]1NC(=O)[C@H](C(C)C)N(C)C(=O)C[C@@H](C(=O)N2CCCCC2)NC(=O)[C@H](CC(C)C)N(C)C(=O)CN(C)C(=O)[C@H]([C@@H](C)O)NC(=O)[C@H](C(C)C)N(C)C(=O)[C@H](Cc2ccccc2)N(C)C(=O)[C@H](COCC[C@@H](C)O)NC(=O)[C@H](Cc2ccccc2)N(C)C(=O)[C@H](CC(C)C)N(C)C1=O` [AP113] ([NMeV]L[NMeL][NMeF]S(Butyl(3R-OH))[NMeF][NMeV]T[Sar][NMeL]D-Piperidide; lactam N-11) had a Papp under setting [1] of 1.7 ×10⁻⁶ cm/s.

As for `CCCCN1CC(=O)N(C)[C@@H](CC(C)C)C(=O)N[C@@H](CCC[C@@H]2CC(F)(F)CN2)C(=O)N(C)[C@@H](CC(C)C)C(=O)N(C)[C@@H](CC(C)C)C(=O)N[C@H](C(=O)N2CCCCC2)CC(=O)N[C@H](CC)C(=O)N(C)[C@@H](Cc2ccccc2)C(=O)N[C@@H](CC(C)C)C(=O)N(C)[C@@H](CC)C(=O)N[C@@H]([C@@H](C)O)C1=O` [Compound H01] ([dAbu][NMeF]L[NMeAbu]T[NBuGly][NMeL][X5][NMeL][NMeL]D-Piperidide; lactam N-11), the Papp under setting [2] worked out at 0.25 ×10⁻⁶ cm/s.

In turn, `CC(C)C[C@@H]1NC(=O)[C@H](Cc2ccccc2)N(C)C(=O)[C@H](CC(C)C)N(C)C(=O)[C@H](COCCCO)NC(=O)[C@H](CC(C)C)N(C)C(=O)C[C@@H](C(=O)N2CCCCC2)NC(=O)[C@H](CC(C)C)N(C)C(=O)CN(C)C(=O)[C@H]([C@@H](C)O)NC(=O)[C@H](CC(C)C)N(C)C(=O)[C@H](Cc2cccc(Cl)c2)N(C)C1=O` [AP97] ([NMeL]S(Propyl(3-OH))[NMeL][NMeF]L[NMePhe(3-Cl)][NMeL]T[Sar][NMeL]D-Piperidide; lactam N-11) returned a Papp under setting [1] of 0.21 ×10⁻⁶ cm/s.

Regarding `CC(C)C[C@@H]1NC(=O)[C@H](Cc2ccccc2)N(C)C(=O)[C@H](Cc2ccccc2)N(C)C(=O)[C@H](COCC(C)(C)CO)NC(=O)[C@H](CC(C)C)N(C)C(=O)CCCN(C)C(=O)C[C@@H](C(=O)N2CCCCC2)NC(=O)[C@H](CC(C)C)N(C)C(=O)[C@H](CC(C)C)N(C)C(=O)[C@H]([C@@H](C)O)NC(=O)[C@H](CC(C)C)N(C)C1=O` [AP119] ([NMeGABA][NMeL]S(Propyl(2,2-Me2,3-OH))[NMeF][NMeF]L[NMeL]T[NMeL][NMeL]D-Piperidide; lactam N-11), under setting [1], the Papp was determined as 0.34 ×10⁻⁶ cm/s.

For `CCCCN1CC(=O)N(C)[C@@H](Cc2ccccc2)C(=O)N(C)[C@@H](CC(C)C)C(=O)N[C@@H](C(C)C)C(=O)N(C)[C@@H](CC(C)C)C(=O)N[C@H](C(=O)N2CCCCC2)CC(=O)N(C)CC(=O)N(C)[C@@H](CC(C)C)C(=O)N[C@@H](COC[C@@H]2CC(F)(F)CN2)C(=O)N(C)[C@@H](CC(C)C)C(=O)N[C@@H]([C@@H](C)O)C1=O` [Compound G06] ([Sar][NMeL]S(Pro(4,4-F2)ψ(CH2))[NMeL]T[NBuGly][NMeF][NMeL]V[NMeL]D-Piperidide; lactam N-11), under setting [2], the Papp is 1.8 ×10⁻⁶ cm/s.

For the setting “Caco-2, Caco-2 (membrane permeability), Table 6, cyclic peptides containing Ser(1-CF3-EtOH) (C) or Hnl(7-F3-6-OH) (D)”, `CC[C@H](C)[C@@H]1NC(=O)[C@H](CC(C)C)N(C)C(=O)[C@H](COC(C)(C)C)NC(=O)[C@H](Cc2ccccc2)N(C)C(=O)[C@H](Cc2ccccc2)N(C)C(=O)[C@H](CCCC(O)C(F)(F)F)NC(=O)[C@H](CC)N(C)C(=O)CCCN(C)C(=O)C[C@@H](C(=O)N2CCCCC2)NC(=O)[C@H](CC(C)C)N(C)C(=O)[C@H](CC(C)C)N(C)C1=O` (stereo partly drawn) [Compound D13] ([NMeGABA][NMeAbu][X12][NMeF][NMeF]S(tBu)[NMeL]I[NMeL][NMeL]D-Piperidide; lactam N-11) came in with a Papp of 0.14 ×10⁻⁶ cm/s.

Turning to `CCCCN1CC(=O)N(C)[C@@H](CC(C)C)C(=O)N[C@@H](COC(C)(C)C)C(=O)N(C)[C@@H](CC(C)C)C(=O)N(C)[C@@H](CC(C)C)C(=O)N[C@H](C(=O)N2CCCCC2)CC(=O)N[C@H](CC(C)C)C(=O)N(C)[C@@H](Cc2ccccc2)C(=O)NC(COCc2noc(=O)[nH]2)C(=O)N(C)[C@@H](CC(C)C)C(=O)N[C@@H]([C@@H](C)O)C1=O` (stereo partly drawn) [AP45] ([dL][NMeF][ξS](CH2(1,2,4-oxadiazolon-3-yl))[NMeL]T[NBuGly][NMeL]S(tBu)[NMeL][NMeL]D-Piperidide; lactam N-11), under setting [1], the Papp turned out to be 1.4 ×10⁻⁶ cm/s.
